Results taken from patent publication EP0156091A1, “Beta-oxo-alpha-carbamoyl-pyrrolepropionitriles, processes for their preparation, pharmaceutical compositions comprising these compounds and their therapeutic use” (CIBA-GEIGY AG, priority 1984, dated 1985).

Assays:
Adjuvans-Arthritis = experiment: Adjuvant arthritis test; assay type: in vivo, Ratte; conditions: rat, 25 mg/kg/p.o.
Protocol: Der übliche Adjuvans-Arthritis-Test für die anti-arthritische Aktivität wird im wesentlichen wie in Proc. Soc. Exp. Biol. Med. 137, 506 (1971) durchgeführt.
Weiter sind die Verbindungen der Erfindung, z.B. die vorher genannten Verbindungen der Beispiele 1, 2 und 3 in dem üblichen Adjuvans- Arthritis-Test an der Ratte bei einer Dosis von 25 mg/kg/p.o. aktiv und sie gewähren einen Schutz von 47%, 58% bzw. 55Z.
Beispiel 13: Der Schutz im üblichen Adjuvans-Arthritis-Test, der im wesentlichen gemäss Proc. Soc. Exp. Biol. Med. 137, 506 (1971) durchgeführt wird, ist wie folgt: […]

[1] = tested on: BCG immunisierten Adjuvans-Arthritis-Ratte; experiment: Skin test (delayed hypersensitivity, PPD) in BCG-immunised adjuvant arthritis rat; assay type: in vivo; conditions: 25 mg/kg/p.o.
Text: Die Erhöhung der durch die Zellen vermittelten Immunität wird in-vivo an der mit BCG-immunisierten arthritischen Ratten durch Messung der Verzögerung der Ueberempfindlichkeitsreaktion, im wesentlichen wie in Current Therapeutic Research 30, S 34 (1981) beschrieben, gemessen.
Männliche Charles River Ratten von einem Gewicht von 325-400 g werden sensibilisiert, indem man jedem Versuchstier in die rechte hintere Pfotensohle […] Mycobacterium tuberculosis (Difco), das in Freund' schem Adjuvans (Freund's incomplete adjuvant) suspendiert ist, injiziert. Die Tiere werden am 18. Tag nach der Adjuvans-Injektion mit 0,1 ml BCG-Vakzine intradermal immunisiert. Die Wirksubstanz wird peroral in einer Maisstärke-Suspension verabreicht. Die Kontrolltiere werden lediglich mit der Maisstärke behandelt. Alle Tiere werden am 29. Tag an der Haut durch intradermale Verabreichung von 10 pg PPD (purified protein derivative) getestet, um Hautreaktionen hervorzurufen. Der Durchmesser des Erythems und die Erhärtungsreaktion werden 24 Stunden nach der Antigen-Behandlung gemessen. Eine […] des Erythem-Durchmessers deutet auf die erhöhte Zellenimmunität hin.

[2] = tested on: durch Carrageenin hervorgerufenen Oedem; experiment: Carrageenan paw oedema test; assay type: in vivo, Ratte; conditions: rat
Protocol: Der Carrageenin-Photenödem-Test in Hinsicht auf die antiinflammatorische Wirkung wird an der Ratte wie folgt durchgeführt: • Eine Stunde nach der oralen Verabreichung der Wirksubstanz wird in die Sohle einer hinteren Pfote 0,1 ml Carrageenin (1%-ig) injiziert. In bestimmten Zeiten wird dann die Differenz der Schwellung zwischen der behandelten und der intakten gegenseitigen Pfote durch Quecksilber-Verdrängung gemessen.
Als Beispiele der Erfindung seien das ß-0xo-a-(phenylcarbamoyl)-ß-(2-pyrrolyl)-propionitril des Beispeils 1 und das ß-0xo-a-(4-chlorphenyl)-ß-(2-pyrrolyl)-propionitril des Beispiels 2 genannt, welche bei einer peroralen Dosis von 100 mg/kg, gegen die durch Carrageenin hervorgerufenen Oedem an der Ratte, 3 Stunden nach der Verabreichung, einen 46 bzw. 63%-igen Schutz gewähren. Analog ergibt das β-Oxo-α-(2,4- difluorphenylcarbamoyl)-ß-(2-pyrrolyl)-propionitril des Beispiels 3, bei einer Dosis von 25 mg/kg/p.o. einen 33%-igen Schutz.

[3] = 100 mg/kg peroral, 3 hours after administration

Row | SMILES | Schutz im Adjuvans-Arthritis-Test (Adjuvans-Arthritis) [%] | Wirkung im Haut-Test (immunopotenzierende Wirkung) [1] | Schutz gegen die durch Carrageenin hervorgerufenen Oedem [2, 3] [%] | Schutz gegen die durch Carrageenin hervorgerufenen Oedem ([2]; 25 mg/kg/p.o.) [%]
1 | N#CC(C(=O)Nc1ccccc1)C(=O)c1ccc[nH]1 (stereo not shown) [Beispiel 1, ß-Oxo-a-(phenylcarbamoyl)-ß-(2-pyrollyl)-propionitril] | 47 | signifikante Wirkung | 46 | –
2 | N#CC(C(=O)Nc1ccc(Cl)cc1)C(=O)c1ccc[nH]1 (stereo not drawn) [Beispiel 2, β-Oxo-α-(4-chlorphenylcarbamoyl)-ß-(2-pyrrolyl)-propionitril] | 58 | signifikante Wirkung | 63 | –
3 | N#CC(C(=O)Nc1ccc(F)cc1F)C(=O)c1ccc[nH]1 (stereo not shown) [Beispiel 3, ß-0xo-a-(2,4-difluorphenylcarbamoyl)-ß-(2-pyrrolyl)-propionitril] | – | – | – | 33
